The term pIC50 denotes the negative decadic logarithm of the IC50, by convention in mol/L.

pIC50: −log10 of the molar value.

The assay has as its target T1, GLUT1 (Homo sapiens, UniProt P11166).
T1 sequence (P11166 1-492): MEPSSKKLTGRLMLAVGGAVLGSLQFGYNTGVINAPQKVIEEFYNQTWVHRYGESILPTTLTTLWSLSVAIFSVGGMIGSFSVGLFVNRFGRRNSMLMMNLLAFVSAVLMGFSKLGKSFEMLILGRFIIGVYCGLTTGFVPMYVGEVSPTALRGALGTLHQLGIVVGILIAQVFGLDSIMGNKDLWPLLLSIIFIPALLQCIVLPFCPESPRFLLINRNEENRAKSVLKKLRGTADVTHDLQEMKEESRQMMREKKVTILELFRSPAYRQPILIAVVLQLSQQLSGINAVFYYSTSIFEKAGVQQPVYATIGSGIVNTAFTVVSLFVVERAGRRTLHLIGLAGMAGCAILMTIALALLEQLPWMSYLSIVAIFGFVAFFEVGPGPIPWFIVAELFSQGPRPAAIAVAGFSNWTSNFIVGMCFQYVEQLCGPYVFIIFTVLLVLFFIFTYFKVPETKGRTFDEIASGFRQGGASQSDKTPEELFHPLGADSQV
Briefly: Indirect measurement of GLUT1 activity by quantification of intracellular ATP levels (glucose induced ATP increase). Type of assay: cell-based. Conditions: read-out: IC50 regarding glucose induced ATP increase (GLUT1 inhibition). Also on record: endogenous in cells; host or cells: DLD1 or CHO-K1. Summed up: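 DLD1 or CHO-K1 cells were starved overnight in glucose-free medium with 1% FCS, then combined with an oxidative phosphorylation inhibitor. GLUT1 activity was read as glucose-induced ATP increase, GLUT2 as fructose-induced. Intracellular ATP was quantified by CellTiter-Glo luminescence.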
Turning to `COC(=O)c1ccc(Cn2nc(C)c(NC(=O)c3cc(C(F)(F)F)nc4ccc(Br)cc34)c2C)cc1` [Example 131, methyl 4-{[4-({[6-bromo-2-(trifluoromethyl)quinolin-4-yl]carbonyl}amino)-3,5-dimethyl-1H-pyrazol-1-yl]methyl}benzoate], the negative-log IC50 (pIC50) was 8.08.

On to `Cc1nn(Cc2ccc(C(=O)O)cc2)c(C)c1NC(=O)c1cc(C(F)(F)F)nc2ccc(Br)cc12` [Example 132, 4-{[4-({[6-bromo-2-(trifluoromethyl)quinolin-4-yl]carbonyl}amino)-3,5-dimethyl-1H-pyrazol-1-yl]methyl}benzoic acid], for which the negative logarithm of the IC50 (pIC50) was 5.25.

`Cc1nn(Cc2ccc(C(N)=O)cc2)c(C)c1NC(=O)c1cc(C(F)(F)F)nc2ccc(Br)cc12` [Example 133, 6-bromo-N-[1-(4-carbamoylbenzyl)-3,5-dimethyl-1H-pyrazol-4-yl]-2-(trifluoromethyl)quinoline-4-carboxamide]: the pIC50 is 8.25.

`Cc1nn(Cc2ccc(C(=O)Nc3ccccc3)cc2)c(C)c1NC(=O)c1cc(C(F)(F)F)nc2ccc(Br)cc12` [Example 134, 6-bromo-N-{3,5-dimethyl-1-[4-(phenylcarbamoyl)benzyl]-1H-pyrazol-4-yl}-2-(trifluoromethyl)quinoline-4-carboxamide]: the negative-log IC50 (pIC50) is 8.18.

Turning to `CNC(=O)c1ccc(Cn2nc(C)c(NC(=O)c3cc(C(F)(F)F)nc4ccc(Br)cc34)c2C)cc1` [Example 135, 6-bromo-N-{3,5-dimethyl-1-[4-(methylcarbamoyl)benzyl]-1H-pyrazol-4-yl}-2-(trifluoromethyl)quinoline-4-carboxamide], the negative logarithm of the IC50 (pIC50) is 8.09.

For `Cc1nn(Cc2ccc(C(=O)NCCN3CCOCC3)cc2)c(C)c1NC(=O)c1cc(C(F)(F)F)nc2ccc(Br)cc12` [Example 136, 6-bromo-N-[3,5-dimethyl-1-(4-{[2-(morpholin-4-yl)ethyl]carbamoyl}benzyl)-1H-pyrazol-4-yl]-2-(trifluoromethyl)quinoline-4-carboxamide], the pIC50 is 8.05.

With `COCCNC(=O)c1ccc(Cn2nc(C)c(NC(=O)c3cc(C(F)(F)F)nc4ccc(Br)cc34)c2C)cc1` [Example 137, 6-bromo-N-(1-{4-[(2-methoxyethyl)carbamoyl]benzyl}-3,5-dimethyl-1H-pyrazol-4-yl)-2-(trifluoromethyl)quinoline-4-carboxamide], the pIC50 is 7.97.

Turning to `Cc1nn(Cc2ccc(C(=O)NCc3cccnc3)cc2)c(C)c1NC(=O)c1cc(C(F)(F)F)nc2ccc(Br)cc12` [Example 138, 6-bromo-N-(3,5-dimethyl-1-{4-[(pyridin-3-ylmethyl)carbamoyl]benzyl}-1H-pyrazol-4-yl)-2-(trifluoromethyl)quinoline-4-carboxamide], the pIC50 was 7.74.

Consider `Cc1nn(Cc2ccc(C(=O)NCCO)cc2)c(C)c1NC(=O)c1cc(C(F)(F)F)nc2ccc(Br)cc12` [Example 139, 6-bromo-N-(1-{4-[(2-hydroxyethyl)carbamoyl]benzyl}-3,5-dimethyl-1H-pyrazol-4-yl)-2-(trifluoromethyl)quinoline-4-carboxamide], for which the negative logarithm of the IC50 (pIC50) is 7.50.

`Cc1nn(Cc2ccc(C(=O)NCc3ccccc3)cc2)c(C)c1NC(=O)c1cc(C(F)(F)F)nc2ccc(Br)cc12` [Example 140, N-{1-[4-(benzylcarbamoyl)benzyl]-3,5-dimethyl-1H-pyrazol-4-yl}-6-bromo-2-(trifluoromethyl)quinoline-4-carboxamide]: the pIC50 was 7.30.

Consider `Cc1nn(Cc2ccc(C(=O)N3CCOCC3)cc2)c(C)c1NC(=O)c1cc(C(F)(F)F)nc2ccc(Br)cc12` [Example 141, 6-bromo-N-{3,5-dimethyl-1-[4-(morpholin-4-ylcarbonyl)benzyl]-1H-pyrazol-4-yl}-2-(trifluoromethyl)quinoline-4-carboxamide], for which the pIC50 was 7.16.

For the compound `Cc1nn(Cc2ccc(C(=O)NCCN(C)C)cc2)c(C)c1NC(=O)c1cc(C(F)(F)F)nc2ccc(Br)cc12` [Example 142, 6-bromo-N-[1-(4-{[2-(dimethylamino)ethyl]carbamoyl}benzyl)-3,5-dimethyl-1H-pyrazol-4-yl]-2-(trifluoromethyl)quinoline-4-carboxamide], the negative-log IC50 (pIC50) is 7.15.

On to `Cc1nn(Cc2ccc(C(=O)N(C)C)cc2)c(C)c1NC(=O)c1cc(C(F)(F)F)nc2ccc(Br)cc12` [Example 143, 6-bromo-N-{1-[4-(dimethylcarbamoyl)benzyl]-3,5-dimethyl-1H-pyrazol-4-yl}-2-(trifluoromethyl)quinoline-4-carboxamide], for which the pIC50 was 7.07.

Regarding `Cc1nn(Cc2ccc(F)c(F)c2)c(C)c1NC(=O)c1cc(C2CCC2)nc2ccc(Br)cc12` [Example 144, 6-bromo-2-cyclobutyl-N-[1-(3,4-difluorobenzyl)-3,5-dimethyl-1H-pyrazol-4-yl]quinoline-4-carboxamide], the pIC50 was 8.24.

Take `Cc1nn(Cc2ccc(F)c(F)c2)c(C)c1NC(=O)c1cc(C2CC2)nc2ccc(Cl)cc12` [Example 145, 6-chloro-2-cyclopropyl-N-[1-(3,4-difluorobenzyl)-3,5-dimethyl-1H-pyrazol-4-yl]quinoline-4-carboxamide]: the pIC50 is 8.21.

Take `Cc1nn(Cc2ccc(F)cc2)c(C)c1NC(=O)c1cc(C2CCC2)nc2ccc(Br)cc12` [Example 146, 6-bromo-2-cyclobutyl-N-[1-(4-fluorobenzyl)-3,5-dimethyl-1H-pyrazol-4-yl]quinoline-4-carboxamide]: the negative logarithm of the IC50 (pIC50) was 8.10.

As to `Cc1nn(Cc2ccc(C#N)nc2)c(C)c1NC(=O)c1cc(C(F)(F)F)nc2ccc(Br)cc12` [Example 147, 6-bromo-N-{1-[(6-cyanopyridin-3-yl)methyl]-3,5-dimethyl-1H-pyrazol-4-yl}-2-(trifluoromethyl)quinoline-4-carboxamide], the negative-log IC50 (pIC50) is 8.09.

Regarding `Cc1nn(Cc2ccc(Cl)cc2)c(C)c1NC(=O)c1cc(C(F)(F)F)nc2ccc(Br)cc12` [Example 148, 6-bromo-N-[1-(4-chlorobenzyl)-3,5-dimethyl-1H-pyrazol-4-yl]-2-(trifluoromethyl)quinoline-4-carboxamide], the pIC50 was 7.94.

`COC(=O)c1ccc2nc(C(F)(F)F)cc(C(=O)Nc3c(C)nn(Cc4ccc(F)cc4)c3C)c2c1` [Example 149, methyl 4-{[1-(4-fluorobenzyl)-3,5-dimethyl-1H-pyrazol-4-yl]carbamoyl}-2-(trifluoromethyl)quinoline-6-carboxylate]: the negative-log IC50 (pIC50) is 7.93.

Consider `COC(=O)Cc1ccc(Cn2nc(C)c(NC(=O)c3cc(C(F)(F)F)nc4ccc(Br)cc34)c2C)cc1` [Example 150, methyl (4-{[4-({[6-bromo-2-(trifluoromethyl)quinolin-4-yl]carbonyl}amino)-3,5-dimethyl-1H-pyrazol-1-yl]methyl}phenyl)acetate], for which the pIC50 was 7.93.

Consider `Cc1nn(Cc2ccc(CC(=O)O)cc2)c(C)c1NC(=O)c1cc(C(F)(F)F)nc2ccc(Br)cc12` [Example 151, (4-{[4-({[6-bromo-2-(trifluoromethyl)quinolin-4-yl]carbonyl}amino)-3,5-dimethyl-1H-pyrazol-1-yl]methyl}phenyl)acetic acid], for which the pIC50 is 5.89.

`Cc1nn(Cc2ccc(CC(N)=O)cc2)c(C)c1NC(=O)c1cc(C(F)(F)F)nc2ccc(Br)cc12` [Example 152, N-{1-[4-(2-amino-2-oxoethyl)benzyl]-3,5-dimethyl-1H-pyrazol-4-yl}-6-bromo-2-(trifluoromethyl)quinoline-4-carboxamide]: the negative-log IC50 (pIC50) is 7.23.

Take `CNC(=O)Cc1ccc(Cn2nc(C)c(NC(=O)c3cc(C(F)(F)F)nc4ccc(Br)cc34)c2C)cc1` [Example 153, 6-bromo-N-(3,5-dimethyl-1-{4-[2-(methylamino)-2-oxoethyl]benzyl}-1H-pyrazol-4-yl)-2-(trifluoromethyl)quinoline-4-carboxamide]: the negative logarithm of the IC50 (pIC50) is 7.02.

With `Cc1nn(Cc2ccc(CC(=O)NCc3ccccc3)cc2)c(C)c1NC(=O)c1cc(C(F)(F)F)nc2ccc(Br)cc12` [Example 154, N-(1-{4-[2-(benzylamino)-2-oxoethyl]benzyl}-3,5-dimethyl-1H-pyrazol-4-yl)-6-bromo-2-(trifluoromethyl)quinoline-4-carboxamide], the negative logarithm of the IC50 (pIC50) was 6.71.

Turning to `Cc1nn(Cc2ccc(CC(=O)Nc3ccccc3)cc2)c(C)c1NC(=O)c1cc(C(F)(F)F)nc2ccc(Br)cc12` [Example 155, 6-bromo-N-(3,5-dimethyl-1-{4-[2-oxo-2-(phenylamino)ethyl]benzyl}-1H-pyrazol-4-yl)-2-(trifluoromethyl)quinoline-4-carboxamide], the negative logarithm of the IC50 (pIC50) is 6.51.

`Cc1nn(Cc2ccc(CC(=O)N(C)C)cc2)c(C)c1NC(=O)c1cc(C(F)(F)F)nc2ccc(Br)cc12` [Example 156, 6-bromo-N-(1-{4-[2-(dimethylamino)-2-oxoethyl]benzyl}-3,5-dimethyl-1H-pyrazol-4-yl)-2-(trifluoromethyl)quinoline-4-carboxamide]: the negative logarithm of the IC50 (pIC50) was 6.45.

For `Cc1nn(Cc2ccc(CC(=O)NCc3cccnc3)cc2)c(C)c1NC(=O)c1cc(C(F)(F)F)nc2ccc(Br)cc12` [Example 157, 6-bromo-N-[3,5-dimethyl-1-(4-{2-oxo-2-[(pyridin-3-ylmethyl)amino]ethyl}benzyl)-1H-pyrazol-4-yl]-2-(trifluoromethyl)quinoline-4-carboxamide], the negative logarithm of the IC50 (pIC50) was 6.36.

Values taken from patent publication US20170037028A1 (BAYER PHARMA AKTIENGESELLSCHAFT, priority 2013, published 2017).
